Data published in patent US7199121B2, “Protein tyrosine phosphatase inhibitor” (Institute of Molecular and Cell Biology, priority 2000, dated 2007).

Tested on: Yop
Conditions: for percentage activity of Yop relative to control: 1 μM compound, phosphatase 0.1 nM, pNPP, average of three enzyme preparations ± S.D.

Compound	inhibition of Yop (1 μM) [%]	percentage activity of Yop relative to control [%]	PTP inhibition of Yop at neutral pH (neutral pH, results not shown)
Cn1nc2c(nc1=O)c(=O)n(C)c(=O)n2C [Compound 3, 2,8-dihydro-2,6,8-trimethyl-pyrimido[5,4-e]-1,2,4-triazine-3,5,7(6H)-trione]	~90	10 ± 1.0	continues to behave as a PTP inhibitor
Cn1nc2c(nc1=O)n(C)c(=O)n2C [Compound 4, 2,5,7-trimethyl-2,7-dihydro-5H-imidazo[4,5-e]-1,2,4-triazine-3,6-dione]		95 ± 4.0	
[Na+].[Na+].[Na+].[O]=[V]([O-])([O-])[O-] [Na3VO4, sodium orthovanadate, reference compound]		14 ± 1.0	
